Where two headings read alike, the source gives them in different places.
Columns and labels:
[1] = test system: rats; settings: for Slope (fiducial limits): LD50, rats; for LD50, fiducial limits / LD50, fiducial limits (micromol/kg equivalent): rats; for LD50, fiducial limits (micromol/kg equivalent): in brackets
[2] = test system: mice; settings: for Slope (fiducial limits): LD50, mice; for LD50, fiducial limits / LD50, fiducial limits (micromol/kg equivalent): mice; for LD50, fiducial limits (micromol/kg equivalent): in brackets
[3] = in vivo; settings: mouse, ip
[4] = test system: isolated rat aorta; experiment: contractions of isolated rat aorta (Godfraind and Kaba 1969)
[5] = test system: isolated intestines of rats; experiment: spasmolytic activity in vitro on isolated intestines of rats
[6] = test system: depolarized aorta of rats; experiment: contraction-promoting effect of bivalent calcium ions on the depolarized aorta of rats (Godfraind and Kaba 1972)
[7] = test system: isolated intestines of Guinea pigs; experiment: spasmolytic activity in vitro on isolated intestines of Guinea pigs
[8] = test system: contractions caused by norepinephrine on the deferent duct; experiment: contractions caused by norepinephrine on the deferent duct (Barnett et al)

CCCCCCCCNC(C)C(O)c1ccc(SC(C)C)cc1 (centres unmarked) [Suloctidil]
Slope (fiducial limits) ([1]; intraperitoneally): 1.86 (1.42-2.44) | Slope (fiducial limits) ([1]; orally): 1.18 (1.13-1.22) | LD50, fiducial limits ([1]; intraperitoneally (TABLE 2)): 32-69 mg/kg b.w. | LD50, fiducial limits (micromol/kg equivalent) ([1]; intraperitoneally (TABLE 2)): 94.8 to 204.4 µmol/kg | LD50, fiducial limits ([1]; orally (TABLE 2)): 1603-1976 mg/kg b.w. | LD50, fiducial limits (micromol/kg equivalent) ([1]; orally (TABLE 2)): 4749 to 5854 µmol/kg | Slope (fiducial limits) ([2]; intraperitoneally): 1.55 (1.33-1.82) | Slope (fiducial limits) ([2]; orally): 1.24 (1.18-1.30) | LD50, fiducial limits ([2]; intraperitoneally (TABLE 2)): 26.8-39.4 mg/kg b.w. | LD50, fiducial limits (micromol/kg equivalent) ([2]; intraperitoneally (TABLE 2)): 70.4 to 116.7 µmol/kg | LD50, fiducial limits ([2]; orally (TABLE 2)): 2016-2511 mg/kg b.w. | LD50, fiducial limits (micromol/kg equivalent) ([2]; orally (TABLE 2)): 5972 to 7439 µmol/kg | LD50 [3]: 32.5 mg/kg

CC(C)Sc1ccc([C@@H](O)[C@H](C)N2CCN(C(=O)C=Cc3ccccc3)CC2)cc1 (relative stereo) [Compound 1]
LD50 [3]: 920 mg/kg

CC(C)Sc1ccc([C@@H](O)[C@@H](C)N2CCN(C(=O)C=Cc3ccccc3)CC2)cc1 (relative stereo) [Compound 2]
LD50 [3]: > 4000 mg/kg

CC(C)Sc1ccc(C(O)C(C)Nc2ccc(C3CCCCC3)cc2)cc1 (centres unmarked) [Compound 9]
LD50 [3]: > 400 mg/kg

CC(C)Sc1ccc(C(O)C(C)Nc2cccc(C3CCCCC3)c2)cc1 (centres unmarked) [Compound 8]
LD50 [3]: 500 mg/kg

CC(C)Sc1ccc(C(O)C(C)Nc2ccccc2C2CCCCC2)cc1 (centres unmarked) [Compound 7]
LD50 [3]: > 400 mg/kg

CC(C)Sc1ccc([C@@H](O)[C@H](C)N2CCN(C(=O)C=Cc3ccccc3)CC2)cc1 (relative stereo) [1-(4-isopropylthiophenyl)-2-(4-cinnamoyl-piperazine-1-yl)-1-propanol]
inhibition of contractions of isolated rat aorta [4]: inhibit the contractions of isolated rat aorta | spasmolytic activity [5]: considerable spasmolytic activity | Slope (fiducial limits) ([2]; intraperitoneally): 1.36 (1.14-1.47) | Slope (fiducial limits) ([2]; orally): 1.25 (1.10-1.42) | LD50, fiducial limits ([2]; intraperitoneally (TABLE 2)): 782-1082 mg/kg b.w. | LD50, fiducial limits (micromol/kg equivalent) ([2]; intraperitoneally (TABLE 2)): 1842 to 2548 µmol/kg | LD50, fiducial limits ([2]; orally (TABLE 2)): 3166-4208 mg/kg b.w. | LD50, fiducial limits (micromol/kg equivalent) ([2]; orally (TABLE 2)): 6867 to 9127 µmol/kg | inhibition of the contraction-promoting effect of bivalent calcium ions on the depolarized aorta [6]: has been inhibited | spasmolytic activity [7]: considerable spasmolytic activity | inhibition of contractions caused by norepinephrine on the deferent duct [8]: inhibit the contractions caused by norepinephrine

CC(C)Sc1ccc(C(O)C(C)NC2CCCCC2c2ccccc2)cc1 (centres unmarked) [Compound 11]
LD50 [3]: > 400 mg/kg

CC(C)Sc1ccc(C(O)C(C)N2CCN(CC=Cc3ccccc3)CC2)cc1 (centres unmarked) [Compound 4]
LD50 [3]: 300 mg/kg

CC(C)Sc1ccc(C(O)C(C)NC2CCC(c3ccccc3)CC2)cc1 (centres unmarked) [Compound 13]
LD50 [3]: 150 mg/kg

CC(C)Sc1ccc([C@@H](O)[C@@H](C)N2CCN(C(=O)C=Cc3ccccc3)CC2)cc1 (relative stereo) [1-(4-isopropylthiophenyl)-2-(4-cinnamoyl-piperazine-1-yl)-1-propanol]
inhibition of contractions of isolated rat aorta [4]: inhibit the contractions of isolated rat aorta | spasmolytic activity [5]: considerable spasmolytic activity | inhibition of the contraction-promoting effect of bivalent calcium ions on the depolarized aorta [6]: has been inhibited | spasmolytic activity [7]: considerable spasmolytic activity | inhibition of contractions caused by norepinephrine on the deferent duct [8]: inhibit the contractions caused by norepinephrine

Fc1ccc(C(c2ccc(F)cc2)N2CCN(C/C=C/c3ccccc3)CC2)cc1 [Flunarizine]
LD50, fiducial limits ([1]; intraperitoneally (TABLE 2)): 332-543 mg/kg b.w. | LD50, fiducial limits ([1]; orally (TABLE 2)): 1714-2773 mg/kg b.w. | LD50, fiducial limits ([2]; intraperitoneally (TABLE 2)): 325-386 mg/kg b.w. | LD50, fiducial limits ([2]; orally (TABLE 2)): 498-687 mg/kg b.w.

COc1cc(C=CC(=O)N2CCN(C(C)C(O)c3ccc(SC(C)C)cc3)CC2)cc(OC)c1OC (centres unmarked) [Compound 3]
LD50 [3]: > 400 mg/kg

COc1cc(C=CCN2CCN(C(C)C(O)c3ccc(SC(C)C)cc3)CC2)cc(OC)c1OC (centres unmarked) [Compound 5]
LD50 [3]: 75 mg/kg

CC(C)Sc1ccc(C(O)C(C)Nc2ccccc2)cc1 (centres unmarked) [Compound 6]
LD50 [3]: 400 mg/kg
